Measured values from US10286034B2, “Uses of bremelanotide in therapy for female sexual dysfunction” (Palatin Technologies, Inc., priority 2012, dated 2019).

Assays:
[1] = Example 1: plasma pharmacokinetics after in-clinic subcutaneous dose; format: in vivo, human
Protocol: Ambulatory blood pressure monitoring was conducted following both placebo and randomized treatment group in-clinic administrations. Three periods of ambulatory blood pressure monitoring were included, the first period was from before to 24 hours after a single, in-clinic dose of placebo (to establish a baseline); the second and third periods occurred from before to 24 hours after each of 2 single, in-clinic doses of double-blind treatment, administered within 14 days of each other. Blood samples for pharmacokinetic analysis were collected before and at 0.5, 1.0, and 2.0 hours after each in-clinic bremelanotide single-dose treatment (double-blind only), to permit analysis of concentration-response relationships.
Mean pharmacokinetic parameters were determined by bremelanotide dose and visit, including Cmax determinations (the highest ng/mL concentration at either 0.5 or 1 hour post administration) and AUC determinations at two hours and, for a subset of subjects in each group, at four hours.
The Cmax for the mean curve was calculated by averaging the concentrations at each time point (0.5, 1, 2 and 4 hours), and this is shown in FIG. 3.

[2] = test system: healthy adult female subjects; assay: Phase 1 single dose escalation, subcutaneous; vaginal photoplethysmography with visual sexual stimulation; format: in vivo, human
Protocol: In a double-blind, placebo-controlled, single dose, dose escalation Phase 1 study to determine the maximum tolerated dose in healthy adult female subjects, doses of from 0.3 to 5.0 mg (0.3, 1.0, 3.0 and 5.0 mg) of bremelanotide were administered by subcutaneous injection. However, this study specifically excluded women with a diagnosis of FSD, and thus could not determine an effective dose for treatment of FSD. The study did employ a measure of pharmacodynamic effect, defined as an increase of sexual arousal response in the presence of visual sexual stimulation as measured by vaginal blood flow with vaginal photoplethysmography (using a Geer gauge device), which measures vaginal pulse amplitude.

[3] = Pharmacokinetics of subcutaneous administration in healthy adult males; format: in vivo, human; conditions: after subcutaneous administration
Excerpt: Results of Tmax values were compared between subcutaneous administration (SC) and intranasal (IN) administration of various doses of bremelanotide, as shown in FIG. 1.

[4] = test system: men diagnosed with erectile dysfunction; conditions: subcutaneous injection of 4 or 6 mg; cited from earlier work

In the case of `CCCC[C@H](NC(C)=O)C(=O)N[C@H]1CC(=O)NCCCC[C@@H](C(=O)O)NC(=O)[C@H](Cc2c[nH]c3ccccc23)NC(=O)[C@H](CCCNC(=N)N)NC(=O)[C@@H](Cc2ccccc2)NC(=O)[C@H](Cc2c[nH]cn2)NC1=O` [bremelanotide, Ac-Nle-cyclo(-Asp-His-D-Phe-Arg-Trp-Lys)-OH], the “AUC(0-2 h) % CV” value ([1]; 0.75 mg SC, Visit 5) is reported as 24%, the “AUC(0-2 h) Max” value ([1]; 0.75 mg SC, Visit 5) is reported as 85 ng·h/mL and the “AUC(0-2 h) Mean” value ([1]; 0.75 mg SC, Visit 5) is reported as 53 ng·h/mL. For the same compound, the “AUC(0-2 h) Median” value ([1]; 0.75 mg SC, Visit 5) was 52 ng·h/mL, the “AUC(0-2 h) Min” value ([1]; 0.75 mg SC, Visit 5) was 25 ng·h/mL and the “AUC(0-4 h) % CV” value ([1]; 0.75 mg SC, Visit 5) was 23%. The “AUC(0-4 h) Max” value ([1]; 0.75 mg SC, Visit 5) was 126 ng·h/mL, the “AUC(0-4 h) Mean” value ([1]; 0.75 mg SC, Visit 5) was 84 ng·h/mL and the “AUC(0-4 h) Median” value ([1]; 0.75 mg SC, Visit 5) was 80 ng·h/mL. For the same compound, the “AUC(0-4 h) Min” value ([1]; 0.75 mg SC, Visit 5) was 50 ng·h/mL, the “Cmax % CV” value ([1]; 0.75 mg SC, Visit 5) was 27% and the “Cmax Max” value ([1]; 0.75 mg SC, Visit 5) was 60 ng/mL. For the same compound, the “Cmax Median” value ([1]; 0.75 mg SC, Visit 5) was 36 ng/mL, the “Cmax Min” value ([1]; 0.75 mg SC, Visit 5) was 17 ng/mL and the “AUC(0-2 h) % CV” value ([1]; 0.75 mg SC, Visit 7) was 24%. The “AUC(0-2 h) Max” value ([1]; 0.75 mg SC, Visit 7) was 92 ng·h/mL, the “AUC(0-2 h) Mean” value ([1]; 0.75 mg SC, Visit 7) was 53 ng·h/mL and the “AUC(0-2 h) Median” value ([1]; 0.75 mg SC, Visit 7) was 52 ng·h/mL. For the same compound, the “AUC(0-2 h) Min” value ([1]; 0.75 mg SC, Visit 7) was 26 ng·h/mL, the “AUC(0-4 h) % CV” value ([1]; 0.75 mg SC, Visit 7) was 20% and the “AUC(0-4 h) Max” value ([1]; 0.75 mg SC, Visit 7) was 120 ng·h/mL. For the same compound, the “AUC(0-4 h) Mean” value ([1]; 0.75 mg SC, Visit 7) was 80 ng·h/mL, the “AUC(0-4 h) Median” value ([1]; 0.75 mg SC, Visit 7) was 79 ng·h/mL and the “AUC(0-4 h) Min” value ([1]; 0.75 mg SC, Visit 7) was 51 ng·h/mL. The “Cmax % CV” value ([1]; 0.75 mg SC, Visit 7) was 27%, the “Cmax Max” value ([1]; 0.75 mg SC, Visit 7) was 78 ng/mL and the “Cmax Mean” value ([1]; 0.75 mg SC, Visit 7) was 38 ng/mL. The “Cmax Min” value ([1]; 0.75 mg SC, Visit 7) was 20 ng/mL, the “AUC(0-2 h) % CV” value ([1]; 1.25 mg SC, Visit 5) was 25% and the “AUC(0-2 h) Max” value ([1]; 1.25 mg SC, Visit 5) was 148 ng·h/mL. The “AUC(0-2 h) Mean” value ([1]; 1.25 mg SC, Visit 5) was 86 ng·h/mL, the “AUC(0-2 h) Median” value ([1]; 1.25 mg SC, Visit 5) was 81 ng·h/mL and the “AUC(0-2 h) Min” value ([1]; 1.25 mg SC, Visit 5) was 42 ng·h/mL. The “AUC(0-4 h) % CV” value ([1]; 1.25 mg SC, Visit 5) was 20%, the “AUC(0-4 h) Max” value ([1]; 1.25 mg SC, Visit 5) was 187 ng·h/mL and the “AUC(0-4 h) Median” value ([1]; 1.25 mg SC, Visit 5) was 136 ng·h/mL. For the same compound, the “AUC(0-4 h) Min” value ([1]; 1.25 mg SC, Visit 5) was 86 ng·h/mL, the “Cmax % CV” value ([1]; 1.25 mg SC, Visit 5) was 31% and the “Cmax Max” value ([1]; 1.25 mg SC, Visit 5) was 126 ng/mL. The “Cmax Mean” value ([1]; 1.25 mg SC, Visit 5) was 60 ng/mL, the “Cmax Min” value ([1]; 1.25 mg SC, Visit 5) was 29 ng/mL and the “AUC(0-2 h) % CV” value ([1]; 1.25 mg SC, Visit 7) was 25%. The “AUC(0-2 h) Max” value ([1]; 1.25 mg SC, Visit 7) was 144 ng·h/mL, the “AUC(0-2 h) Mean” value ([1]; 1.25 mg SC, Visit 7) was 84 ng·h/mL and the “AUC(0-2 h) Median” value ([1]; 1.25 mg SC, Visit 7) was 84 ng·h/mL. For the same compound, the “AUC(0-2 h) Min” value ([1]; 1.25 mg SC, Visit 7) was 24 ng·h/mL, the “AUC(0-4 h) % CV” value ([1]; 1.25 mg SC, Visit 7) was 25% and the “AUC(0-4 h) Max” value ([1]; 1.25 mg SC, Visit 7) was 199 ng·h/mL. For the same compound, the “AUC(0-4 h) Mean” value ([1]; 1.25 mg SC, Visit 7) was 142 ng·h/mL, the “AUC(0-4 h) Median” value ([1]; 1.25 mg SC, Visit 7) was 144 ng·h/mL and the “AUC(0-4 h) Min” value ([1]; 1.25 mg SC, Visit 7) was 39 ng·h/mL. The “Cmax % CV” value ([1]; 1.25 mg SC, Visit 7) was 33%, the “Cmax Max” value ([1]; 1.25 mg SC, Visit 7) was 150 ng/mL and the “Cmax Mean” value ([1]; 1.25 mg SC, Visit 7) was 60 ng/mL. The “Cmax Median” value ([1]; 1.25 mg SC, Visit 7) was 60 ng/mL, the “Cmax Min” value ([1]; 1.25 mg SC, Visit 7) was 18 ng/mL and the “AUC(0-2 h) % CV” value ([1]; 1.75 mg SC, Visit 5) was 23%. For the same compound, the “AUC(0-2 h) Max” value ([1]; 1.75 mg SC, Visit 5) was 171 ng·h/mL, the “AUC(0-2 h) Min” value ([1]; 1.75 mg SC, Visit 5) was 17 ng·h/mL and the “AUC(0-4 h) % CV” value ([1]; 1.75 mg SC, Visit 5) was 29%. For the same compound, the “AUC(0-4 h) Max” value ([1]; 1.75 mg SC, Visit 5) was 289 ng·h/mL, the “AUC(0-4 h) Median” value ([1]; 1.75 mg SC, Visit 5) was 179 ng·h/mL and the “AUC(0-4 h) Min” value ([1]; 1.75 mg SC, Visit 5) was 25 ng·h/mL. The “Cmax % CV” value ([1]; 1.75 mg SC, Visit 5) was 25%, the “Cmax Mean” value ([1]; 1.75 mg SC, Visit 5) was 77 ng/mL and the “Cmax Median” value ([1]; 1.75 mg SC, Visit 5) was 78 ng/mL. The “AUC(0-2 h) % CV” value ([1]; 1.75 mg SC, Visit 7) was 25%, the “AUC(0-2 h) Max” value ([1]; 1.75 mg SC, Visit 7) was 176 ng·h/mL and the “AUC(0-2 h) Median” value ([1]; 1.75 mg SC, Visit 7) was 111 ng·h/mL. The “AUC(0-2 h) Min” value ([1]; 1.75 mg SC, Visit 7) was 28 ng·h/mL, the “AUC(0-4 h) % CV” value ([1]; 1.75 mg SC, Visit 7) was 25% and the “AUC(0-4 h) Max” value ([1]; 1.75 mg SC, Visit 7) was 276 ng·h/mL. The “AUC(0-4 h) Mean” value ([1]; 1.75 mg SC, Visit 7) was 184 ng·h/mL, the “AUC(0-4 h) Median” value ([1]; 1.75 mg SC, Visit 7) was 180 ng·h/mL and the “AUC(0-4 h) Min” value ([1]; 1.75 mg SC, Visit 7) was 72 ng·h/mL. For the same compound, the “Cmax % CV” value ([1]; 1.75 mg SC, Visit 7) was 25%, the “Cmax Max” value ([1]; 1.75 mg SC, Visit 7) was 127 ng/mL and the “Cmax Mean” value ([1]; 1.75 mg SC, Visit 7) was 78 ng/mL. For the same compound, the “Cmax Median” value ([1]; 1.75 mg SC, Visit 7) was 77 ng/mL, the “Cmax Min” value ([1]; 1.75 mg SC, Visit 7) was 27 ng/mL and the “Cmax % CV” value ([1]; 1.75 mg subcutaneous dose) was 25%. The “median Cmax” value ([1]; 1.75 mg subcutaneous dose) was 78 ng/mL, the “pharmacodynamic effect (vaginal pulse amplitude)” value ([2]; 0.3 or 1.0 mg subcutaneous, compared to placebo or baseline) was “no apparent pharmacodynamic effect” and the “pharmacodynamic effect (vaginal pulse amplitude)” value ([2]; 3 and 5 mg subcutaneous) was “statistically significant pharmacodynamic effect”. For the same compound, the “subcutaneous doses at which a pharmacodynamics effect was seen” value ([2]; normal female volunteers) was no less than 3 mg, the “time to quantifiable concentrations in plasma” value [3] was no more than 15 min and the erectile response [4] was “statistically significant erectile response compared to placebo”.
